Tests used:
[1] = molecular target: Ephrin type-A receptor 1 (Homo sapiens) (UniProt P21709); conditions: Compound concentration 1000.0 nM
[2] = molecular target: Serine/threonine-protein kinase 26 (Homo sapiens) (UniProt Q9P289); conditions: Compound concentration 1000.0 nM
[3] = molecular target: Proto-oncogene tyrosine-protein kinase receptor Ret (Homo sapiens) (UniProt P07949); conditions: Compound concentration 1000.0 nM
[4] = molecular target: Tyrosine-protein kinase JAK3 (Homo sapiens) (UniProt P52333); conditions: Compound concentration 1000.0 nM
[5] = molecular target: STE20-like serine/threonine-protein kinase (Homo sapiens) (UniProt Q9H2G2); conditions: Compound concentration 1000.0 nM
[6] = molecular target: Serine/threonine-protein kinase N1 (Homo sapiens) (UniProt Q16512); conditions: Compound concentration 1000.0 nM
[7] = molecular target: MAP kinase-activated protein kinase 2 (Homo sapiens) (UniProt P49137); conditions: Compound concentration 1000.0 nM
[8] = molecular target: MAP kinase-interacting serine/threonine-protein kinase 2 (Homo sapiens) (UniProt Q9HBH9); conditions: Compound concentration 1000.0 nM
[9] = molecular target: Serine/threonine-protein kinase PknB (Mycobacterium tuberculosis) (UniProt P9WI81); conditions: Compound concentration 1000.0 nM
Serine/threonine-protein kinase PknB (Mycobacterium tuberculosis), sequence (P9WI81 whole entry): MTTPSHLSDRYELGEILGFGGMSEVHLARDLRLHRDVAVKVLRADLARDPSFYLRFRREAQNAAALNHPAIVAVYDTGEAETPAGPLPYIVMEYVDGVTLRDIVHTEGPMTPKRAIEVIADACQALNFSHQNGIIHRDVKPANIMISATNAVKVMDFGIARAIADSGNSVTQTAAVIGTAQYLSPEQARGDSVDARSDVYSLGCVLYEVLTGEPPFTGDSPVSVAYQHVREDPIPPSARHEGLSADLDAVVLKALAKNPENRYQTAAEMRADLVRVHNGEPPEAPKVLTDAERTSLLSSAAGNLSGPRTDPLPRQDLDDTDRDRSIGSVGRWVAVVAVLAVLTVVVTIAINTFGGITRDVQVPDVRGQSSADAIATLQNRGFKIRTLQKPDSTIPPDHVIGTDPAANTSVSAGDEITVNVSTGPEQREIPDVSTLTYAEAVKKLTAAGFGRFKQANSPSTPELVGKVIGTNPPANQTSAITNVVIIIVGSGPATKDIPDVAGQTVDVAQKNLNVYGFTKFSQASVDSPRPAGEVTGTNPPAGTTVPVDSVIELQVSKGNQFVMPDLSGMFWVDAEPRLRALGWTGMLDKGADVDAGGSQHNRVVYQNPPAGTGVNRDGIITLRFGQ

[10] = molecular target: Serine/threonine-protein kinase RIO2 (Homo sapiens) (UniProt Q9BVS4); conditions: Compound concentration 1000.0 nM
Serine/threonine-protein kinase RIO2 (Homo sapiens), sequence (Q9BVS4 whole entry, looked up): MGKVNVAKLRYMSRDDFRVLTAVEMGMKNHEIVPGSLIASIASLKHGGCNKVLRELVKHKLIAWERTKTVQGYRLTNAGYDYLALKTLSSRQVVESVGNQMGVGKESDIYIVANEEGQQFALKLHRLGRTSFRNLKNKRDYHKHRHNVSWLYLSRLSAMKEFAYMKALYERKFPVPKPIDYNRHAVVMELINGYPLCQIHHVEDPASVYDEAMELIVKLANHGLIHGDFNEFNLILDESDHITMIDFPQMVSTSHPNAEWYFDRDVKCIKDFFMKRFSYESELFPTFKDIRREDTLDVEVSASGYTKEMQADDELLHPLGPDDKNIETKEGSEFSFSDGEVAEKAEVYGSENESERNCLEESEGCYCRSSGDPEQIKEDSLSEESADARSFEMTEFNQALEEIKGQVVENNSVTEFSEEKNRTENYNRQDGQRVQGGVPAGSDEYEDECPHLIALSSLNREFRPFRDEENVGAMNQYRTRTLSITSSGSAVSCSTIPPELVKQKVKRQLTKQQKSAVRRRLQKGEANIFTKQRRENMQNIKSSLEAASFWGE

[11] = molecular target: Mitotic checkpoint serine/threonine-protein kinase BUB1 (Homo sapiens) (UniProt O43683); conditions: Compound concentration 1000.0 nM
[12] = tested on: ALK tyrosine kinase receptor (Homo sapiens), Q9UM73 [C1156Y]; conditions: Compound concentration 1000.0 nM
[13] = molecular target: Serine/threonine-protein kinase Nek2 (Homo sapiens) (UniProt P51955); conditions: Compound concentration 1000.0 nM
[14] = molecular target: 5-hydroxytryptamine receptor 3A (Homo sapiens) (UniProt P46098); conditions: Compound concentration 10.0 uM
[15] = molecular target: Serine/threonine-protein kinase tousled-like 1 (Homo sapiens) (UniProt Q9UKI8); conditions: Compound concentration 1000.0 nM
[16] = molecular target: G protein-coupled receptor kinase 4 (Homo sapiens) (UniProt P32298); conditions: Compound concentration 1000.0 nM
G protein-coupled receptor kinase 4 (Homo sapiens), sequence (P32298 whole entry, looked up): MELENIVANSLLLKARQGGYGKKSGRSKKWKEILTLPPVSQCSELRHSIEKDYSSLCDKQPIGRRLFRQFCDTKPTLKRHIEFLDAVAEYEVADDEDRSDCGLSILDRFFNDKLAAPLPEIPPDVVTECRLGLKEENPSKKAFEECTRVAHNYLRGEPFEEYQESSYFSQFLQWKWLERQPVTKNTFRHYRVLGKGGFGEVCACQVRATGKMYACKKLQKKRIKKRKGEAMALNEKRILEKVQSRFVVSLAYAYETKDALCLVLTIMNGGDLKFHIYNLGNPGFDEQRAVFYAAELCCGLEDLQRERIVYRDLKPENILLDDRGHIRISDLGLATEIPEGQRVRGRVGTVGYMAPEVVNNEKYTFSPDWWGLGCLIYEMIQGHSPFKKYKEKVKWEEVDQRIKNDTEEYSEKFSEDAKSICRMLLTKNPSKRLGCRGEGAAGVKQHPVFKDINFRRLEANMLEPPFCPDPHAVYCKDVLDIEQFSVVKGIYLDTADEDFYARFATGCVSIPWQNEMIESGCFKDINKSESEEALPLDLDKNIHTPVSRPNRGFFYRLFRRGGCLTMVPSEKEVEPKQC

[17] = molecular target: T1, Alpha-1A adrenergic receptor (Homo sapiens) (UniProt P35348); conditions: Compound concentration 10.0 uM
T1 sequence (whole entry): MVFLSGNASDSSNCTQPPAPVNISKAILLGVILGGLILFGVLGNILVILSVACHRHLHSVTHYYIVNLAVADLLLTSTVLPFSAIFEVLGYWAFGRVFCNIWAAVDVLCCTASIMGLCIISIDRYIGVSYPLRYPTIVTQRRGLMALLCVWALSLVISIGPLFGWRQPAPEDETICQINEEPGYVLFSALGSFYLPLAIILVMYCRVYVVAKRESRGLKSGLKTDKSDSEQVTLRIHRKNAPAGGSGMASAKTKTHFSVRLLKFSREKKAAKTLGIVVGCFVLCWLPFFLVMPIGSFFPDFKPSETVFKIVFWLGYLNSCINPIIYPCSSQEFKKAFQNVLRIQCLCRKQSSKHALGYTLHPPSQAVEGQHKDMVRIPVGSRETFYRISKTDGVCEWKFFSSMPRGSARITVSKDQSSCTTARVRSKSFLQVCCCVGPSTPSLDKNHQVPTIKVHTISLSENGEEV

[18] = molecular target: 5-hydroxytryptamine receptor 1E (Homo sapiens) (UniProt P28566); conditions: Compound concentration 10.0 uM
5-hydroxytryptamine receptor 1E (Homo sapiens), sequence (P28566 whole entry): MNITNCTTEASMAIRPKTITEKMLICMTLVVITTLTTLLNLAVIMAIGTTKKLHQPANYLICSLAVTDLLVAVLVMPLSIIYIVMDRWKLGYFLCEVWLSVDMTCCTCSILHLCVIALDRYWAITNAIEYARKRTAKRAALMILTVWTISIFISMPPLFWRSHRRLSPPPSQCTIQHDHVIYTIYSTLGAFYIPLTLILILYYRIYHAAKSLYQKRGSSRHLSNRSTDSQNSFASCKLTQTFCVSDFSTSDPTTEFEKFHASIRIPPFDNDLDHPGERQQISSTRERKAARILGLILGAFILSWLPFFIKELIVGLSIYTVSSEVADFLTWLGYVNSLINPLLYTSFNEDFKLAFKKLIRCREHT

[19] = molecular target: Homeodomain-interacting protein kinase 1 (Homo sapiens) (UniProt Q86Z02); conditions: Compound concentration 1000.0 nM
Homeodomain-interacting protein kinase 1 (Homo sapiens), sequence (Q86Z02 whole entry, looked up): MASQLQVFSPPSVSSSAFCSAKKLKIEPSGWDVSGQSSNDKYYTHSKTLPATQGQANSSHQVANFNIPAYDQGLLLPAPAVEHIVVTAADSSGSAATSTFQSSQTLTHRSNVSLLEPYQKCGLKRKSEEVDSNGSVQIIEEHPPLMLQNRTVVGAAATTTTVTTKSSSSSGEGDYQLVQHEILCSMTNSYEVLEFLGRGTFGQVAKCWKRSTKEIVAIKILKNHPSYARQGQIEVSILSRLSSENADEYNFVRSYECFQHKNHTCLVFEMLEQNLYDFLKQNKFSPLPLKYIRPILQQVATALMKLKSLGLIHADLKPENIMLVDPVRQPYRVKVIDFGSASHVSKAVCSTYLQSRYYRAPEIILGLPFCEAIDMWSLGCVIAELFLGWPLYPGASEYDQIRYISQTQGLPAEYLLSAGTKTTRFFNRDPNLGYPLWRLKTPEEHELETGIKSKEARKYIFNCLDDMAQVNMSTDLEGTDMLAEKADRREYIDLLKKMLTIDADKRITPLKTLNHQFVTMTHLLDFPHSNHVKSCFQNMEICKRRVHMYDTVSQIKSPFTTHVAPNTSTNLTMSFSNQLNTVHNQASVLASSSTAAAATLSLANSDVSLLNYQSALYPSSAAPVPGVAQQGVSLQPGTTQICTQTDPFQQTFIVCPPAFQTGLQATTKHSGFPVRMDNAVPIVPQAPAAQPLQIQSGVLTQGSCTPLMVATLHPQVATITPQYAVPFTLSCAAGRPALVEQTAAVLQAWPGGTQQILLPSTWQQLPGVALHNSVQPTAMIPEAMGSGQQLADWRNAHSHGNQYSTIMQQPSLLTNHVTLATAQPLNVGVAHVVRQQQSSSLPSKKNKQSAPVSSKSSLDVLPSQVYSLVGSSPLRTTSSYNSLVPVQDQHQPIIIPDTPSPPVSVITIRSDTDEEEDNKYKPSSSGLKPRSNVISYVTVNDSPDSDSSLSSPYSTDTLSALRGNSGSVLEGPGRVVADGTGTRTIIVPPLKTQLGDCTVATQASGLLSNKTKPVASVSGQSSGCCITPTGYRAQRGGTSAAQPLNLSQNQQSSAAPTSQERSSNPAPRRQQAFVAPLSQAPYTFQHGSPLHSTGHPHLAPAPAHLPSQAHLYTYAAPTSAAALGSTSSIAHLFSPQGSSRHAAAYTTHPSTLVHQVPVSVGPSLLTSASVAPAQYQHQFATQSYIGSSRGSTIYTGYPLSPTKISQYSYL

[20] = molecular target: RAF proto-oncogene serine/threonine-protein kinase (Homo sapiens) (UniProt P04049); conditions: Compound concentration 1000.0 nM
[21] = molecular target: Serine/threonine-protein kinase MRCK alpha (Homo sapiens) (UniProt Q5VT25); conditions: Compound concentration 1000.0 nM
[22] = molecular target: Beta-3 adrenergic receptor (Homo sapiens) (UniProt P13945); conditions: Compound concentration 10.0 uM
[23] = molecular target: Fibroblast growth factor receptor 2 (Homo sapiens) (UniProt P21802); conditions: Compound concentration 1000.0 nM
[24] = tested on: Receptor-type tyrosine-protein kinase FLT3 (Homo sapiens), P36888 [UNDEFINED MUTATION]; conditions: Compound concentration 1000.0 nM
Receptor-type tyrosine-protein kinase FLT3 (Homo sapiens), P36888 [UNDEFINED MUTATION], sequence (P36888 whole entry, looked up, change not shown): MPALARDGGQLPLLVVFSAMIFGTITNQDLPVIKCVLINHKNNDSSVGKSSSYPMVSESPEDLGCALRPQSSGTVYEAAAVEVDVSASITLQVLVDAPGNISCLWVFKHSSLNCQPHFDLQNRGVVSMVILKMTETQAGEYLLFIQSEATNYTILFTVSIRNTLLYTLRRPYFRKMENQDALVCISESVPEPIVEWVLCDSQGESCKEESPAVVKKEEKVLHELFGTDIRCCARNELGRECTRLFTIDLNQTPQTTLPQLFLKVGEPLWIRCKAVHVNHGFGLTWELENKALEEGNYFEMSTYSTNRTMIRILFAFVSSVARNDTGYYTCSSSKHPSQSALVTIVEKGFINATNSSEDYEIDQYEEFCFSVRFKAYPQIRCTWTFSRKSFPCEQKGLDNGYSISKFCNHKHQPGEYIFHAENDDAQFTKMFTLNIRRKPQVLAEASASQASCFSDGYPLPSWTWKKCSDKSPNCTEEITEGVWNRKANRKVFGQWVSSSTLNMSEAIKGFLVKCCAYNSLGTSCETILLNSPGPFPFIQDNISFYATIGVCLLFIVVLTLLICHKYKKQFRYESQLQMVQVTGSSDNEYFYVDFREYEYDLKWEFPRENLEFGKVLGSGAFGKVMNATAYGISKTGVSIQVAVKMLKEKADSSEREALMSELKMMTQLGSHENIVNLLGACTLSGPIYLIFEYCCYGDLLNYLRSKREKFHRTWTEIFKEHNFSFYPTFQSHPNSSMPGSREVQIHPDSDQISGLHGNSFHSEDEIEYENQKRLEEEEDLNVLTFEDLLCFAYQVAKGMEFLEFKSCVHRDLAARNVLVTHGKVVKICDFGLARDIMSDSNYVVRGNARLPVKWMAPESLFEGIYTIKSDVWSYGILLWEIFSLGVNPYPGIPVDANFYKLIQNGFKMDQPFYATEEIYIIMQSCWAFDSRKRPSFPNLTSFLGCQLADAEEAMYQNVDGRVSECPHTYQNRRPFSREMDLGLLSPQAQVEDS

[25] = molecular target: Serine/threonine-protein kinase Nek1 (Homo sapiens) (UniProt Q96PY6); conditions: Compound concentration 1000.0 nM
[26] = molecular target: Ribosomal protein S6 kinase alpha-5 (Homo sapiens) (UniProt O75582); conditions: Compound concentration 1000.0 nM
[27] = molecular target: Histamine H4 receptor (Homo sapiens, UniProt Q9H3N8); conditions: Compound concentration 10.0 uM
[28] = molecular target: T2, 5-hydroxytryptamine receptor 1A (Homo sapiens, UniProt P08908); assay: GPCRScan assay: inhibition of 5-HT1A; parameters: radioligand conc. used [nm] 0.5 – 1.0, parental cells stable CHO
T2 sequence (P08908 whole entry): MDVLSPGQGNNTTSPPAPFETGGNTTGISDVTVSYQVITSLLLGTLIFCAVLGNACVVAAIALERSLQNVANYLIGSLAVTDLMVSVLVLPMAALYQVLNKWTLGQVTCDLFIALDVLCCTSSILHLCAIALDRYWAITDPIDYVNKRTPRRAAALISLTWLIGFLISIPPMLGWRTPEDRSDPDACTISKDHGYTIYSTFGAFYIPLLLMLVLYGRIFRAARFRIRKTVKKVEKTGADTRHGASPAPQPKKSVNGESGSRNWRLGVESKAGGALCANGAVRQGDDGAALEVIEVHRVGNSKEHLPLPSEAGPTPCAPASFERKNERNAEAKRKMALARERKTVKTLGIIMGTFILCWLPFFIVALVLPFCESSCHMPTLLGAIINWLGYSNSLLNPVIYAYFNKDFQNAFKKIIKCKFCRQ

[29] = molecular target: Ribosomal protein S6 kinase alpha-6 (Homo sapiens) (UniProt Q9UK32); conditions: Compound concentration 1000.0 nM
[30] = molecular target: Dual specificity mitogen-activated protein kinase kinase 5 (Homo sapiens) (UniProt Q13163); conditions: Compound concentration 1000.0 nM
[31] = molecular target: Myosin light chain kinase 2, skeletal/cardiac muscle (Homo sapiens) (UniProt Q9H1R3); conditions: Compound concentration 1000.0 nM
[32] = molecular target: Tyrosine-protein kinase ITK/TSK (Homo sapiens) (UniProt Q08881); conditions: Compound concentration 1000.0 nM
[33] = molecular target: Serine/threonine-protein kinase 33 (Homo sapiens) (UniProt Q9BYT3); conditions: Compound concentration 1000.0 nM
Serine/threonine-protein kinase 33 (Homo sapiens), sequence (Q9BYT3 whole entry, looked up): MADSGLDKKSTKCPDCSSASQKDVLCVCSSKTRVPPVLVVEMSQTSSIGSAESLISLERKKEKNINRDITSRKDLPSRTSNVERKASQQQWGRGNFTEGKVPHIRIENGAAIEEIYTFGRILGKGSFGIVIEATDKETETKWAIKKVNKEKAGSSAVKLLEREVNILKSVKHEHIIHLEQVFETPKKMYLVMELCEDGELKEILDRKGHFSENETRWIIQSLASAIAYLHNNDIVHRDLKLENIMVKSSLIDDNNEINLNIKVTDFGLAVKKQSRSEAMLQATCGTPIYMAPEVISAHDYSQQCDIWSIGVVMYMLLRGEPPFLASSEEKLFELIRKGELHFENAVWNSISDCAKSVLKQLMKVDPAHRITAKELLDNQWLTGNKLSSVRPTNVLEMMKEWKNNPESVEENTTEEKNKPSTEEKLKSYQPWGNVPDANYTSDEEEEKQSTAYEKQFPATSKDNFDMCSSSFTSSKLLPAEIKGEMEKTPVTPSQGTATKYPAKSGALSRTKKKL

**Q.** What does the source list for `CNCc1ccccc1-c1csc([C@@H](C)Nc2nc(C)nc3cc(OC)c(OC)cc23)c1` [BAY-293]?
**A.** residual activity [1]: 79%; residual activity [2]: 99%; residual activity [3]: 86%; residual activity [4]: 94%; residual activity [5]: 97%; residual activity [6]: 100%; residual activity [7]: 83%; residual activity [8]: 63%; residual activity [9]: 76%; residual activity [10]: 100%; residual activity [11]: 100%; residual activity [12]: 100%; residual activity [13]: 92%; inhibition [14]: 17.1%; residual activity [15]: 100%; residual activity [16]: 80%; inhibition [17]: 71.6%; inhibition [18]: 5.81%; residual activity [19]: 78%; residual activity [20]: 70%; residual activity [21]: 67%; inhibition [22]: 20%; residual activity [23]: 85%; residual activity [24]: 57%; residual activity [25]: 91%; residual activity [26]: 89%; inhibition [27]: 42.1%; Ki ([28]; read-out: Ki): 3.63 µM; Ki ([28]; read-out: pKi (converted)): 3.35 µM; residual activity [29]: 100%; residual activity [30]: 91%; residual activity [31]: 91%; residual activity [32]: 100%; residual activity [33]: 45%

**Q.** How did the residual activity [1] turn out when `CNCc1ccccc1-c1csc([C@H](C)Nc2nc(C)nc3cc(OC)c(OC)cc23)c1` [BAY-294] was run?
**A.** Its residual activity is 100%.

**Q.** And the residual activity [2]?
**A.** Its residual activity is 97%.

**Q.** What about the residual activity [3] of the same compound?
**A.** The residual activity was 100%.

**Q.** And the residual activity [4]?
**A.** Its residual activity is 99%.

**Q.** And the residual activity [5]?
**A.** The residual activity was 100%.

**Q.** And the residual activity [6]?
**A.** The residual activity was 100%.

**Q.** What about the residual activity [7] of the same compound?
**A.** The residual activity was 80%.

**Q.** What about the residual activity [8] of the same compound?
**A.** The residual activity was 71%.

**Q.** And the residual activity [9]?
**A.** The residual activity was 90%.

**Q.** And the residual activity [10]?
**A.** Its residual activity is 100%.

**Q.** What about the residual activity [11] of the same compound?
**A.** Its residual activity is 100%.

**Q.** And the residual activity [12]?
**A.** The residual activity was 100%.

**Q.** And the residual activity [13]?
**A.** Its residual activity is 92%.

**Q.** What about the inhibition [14] of the same compound?
**A.** The inhibition was 16%.

**Q.** What about the residual activity [15] of the same compound?
**A.** Its residual activity is 100%.

**Q.** What about the residual activity [16] of the same compound?
**A.** The residual activity was 97%.

**Q.** What about the inhibition [17] of the same compound?
**A.** Its inhibition is 83.4%.

**Q.** What about the inhibition [18] of the same compound?
**A.** Its inhibition is 10.8%.

**Q.** And the residual activity [19]?
**A.** The residual activity was 79%.

**Q.** What about the residual activity [20] of the same compound?
**A.** The residual activity was 65%.

**Q.** What about the residual activity [21] of the same compound?
**A.** Its residual activity is 92%.

**Q.** And the inhibition [22]?
**A.** The inhibition was 38.2%.

**Q.** And the residual activity [23]?
**A.** The residual activity was 94%.

**Q.** What about the residual activity [24] of the same compound?
**A.** Its residual activity is 79%.

**Q.** And the residual activity [25]?
**A.** Its residual activity is 100%.

**Q.** And the residual activity [26]?
**A.** Its residual activity is 82%.

**Q.** What about the inhibition [27] of the same compound?
**A.** Its inhibition is 67%.

**Q.** What about the Ki ([28]; read-out: Ki) of the same compound?
**A.** The Ki was 0.391 µM.

**Q.** What about the residual activity [29] of the same compound?
**A.** Its residual activity is 100%.

**Q.** What about the residual activity [30] of the same compound?
**A.** Its residual activity is 87%.

**Q.** What about the residual activity [31] of the same compound?
**A.** Its residual activity is 100%.

**Q.** And the residual activity [32]?
**A.** Its residual activity is 100%.

**Q.** And the residual activity [33]?
**A.** The residual activity was 73%.

Source: ChEMBL document CHEMBL4507273 (2021)
